Series [1] can be described thus: chemical stability of selected ingredients in the composition of Example 3 (HPLC assay). The note with it: in composition of Example 3.
Procedure: (§1) The composition of Example 3 was subjected to a range of temperatures over a prolonged period of time to determine the chemical stability of selected ingredients.
(§2) Next, chemical stability of avobenzone was determined using a suitable HPLC assay.
(§3) Next, the chemical stability of octyl methoxycinnamate was determined using a suitable HPLC assay.
(§4) Next, the chemical stability of the oxybenzone sunscreen was determined for 30 and 60 days at 6° C., 25° C., 30° C., and 40° C. using a suitable HPLC assay.
(§5) Next, the chemical stability of the oxybenzone sunscreen at 90 days was determined using a suitable HPLC assay.
For series [2] the following is noted: 0 days.
Procedure: as §1, §2, §3, §4, §5
The conditions of series [3]: in composition of Example 1; 30 and 90 days. On the procedure:
The composition of Example 1 was subjected to a range of temperatures over a period of time from 30 to 90 days to determine the chemical stability of selected ingredients. […] “FT” refers to freeze thaw conditions (−10° to −20° C.) where the product is exposed to freezing conditions for two days and then allowed to that at controlled room temperature (15° to 30° C.) for the next five days.

Like-named read-outs stand apart in the source and are kept apart here.

Consider `COc1ccc(C(=O)c2ccccc2)c(O)c1` [oxybenzone], for which the “ingredient activity after exposure of the formulation to high and low temperatures” value (shortened to “ingredient activity after exposure”) in series [1] (30 to 60 days) and in series [1] (30 to 90 days) was “remained active” each time. The “ingredient content, chemical stability by HPLC” value (“ingredient content” below) in series [1] (30 days, 25°) is listed as 5.98 % W/W; in series [1] (30 days, 30°), 5.95 % W/W; in series [1] (30 days, 40°), 6.04 % W/W; in series [1] (60 days, 25°) it was 6.04 % W/W; in series [1] (60 days, 30°), 6.02 % W/W; in series [1] (60 days, 40°), 6.07 % W/W. For the same compound, the “ingredient content” value was 6.05 % W/W in series [1] (90 days, 6°); 6.09 % W/W in series [1] (90 days, 25°); 6.07 % W/W in series [1] (90 days, 30°); 6.06 % W/W in series [1] (90 days, 40°); 6.09 % W/W in series [1] (90 days, FT (freeze thaw)); 6.07 % W/W in series [1] (day 0, 25°).
Regarding `CCCCC(CC)COC(=O)C=Cc1ccc(OC)cc1` (stereo not drawn) [octyl methoxycinnamate], in series [2], the “ingredient content” value was found to be 7.61 % W/W.
With `COc1ccc(C(=O)CC(=O)c2ccc(C(C)(C)C)cc2)cc1` [avobenzone], the “ingredient activity after exposure” value in series [1] (30 to 90 days) and in series [3] was “remained active” in each case. In addition, the “ingredient content” value in series [2] came out at 3.03 % W/W.
For `Oc1ccc(O)cc1` [hydroquinone], the figures for the “ingredient activity after exposure” value in series [1] (30 to 90 days) and in series [3] were “remained active” and “remains active”, respectively. Moreover, in series [2], the “ingredient content” value is given as 3.95 % W/W.

These data come from patent US20040185016A1, “Compositions for treatment of hyperpigmentation and methods for making and using such compositions” (priority 2002, published 2004).
